Measured values taken from patent publication US20260158177A1, “COMPOUNDS SPECIFIC TO GRANZYME B AND USES THEREOF” (CYTOSITE BIOPHARMA INC., priority 2021, published 2026).
Numbered stars: 1 amine (or outer) side, 2 acyl side, 3 side chain; on linkers, the order of the positions; unused ones are H or OH. Square brackets hold non-standard residues; d marks the D form. Peptide text beside a SMILES is read from it. * marks the point of attachment. NOTA(AlF) = O=C1CN2CCN(CCN(CC(=O)*)CC2)CC(=O)[O][Al]([F])[O]1; Haic = O=C1[C@@H](N[*:1])CCc2cccc3c2N1[C@H](C(=O)[*:2])C3; NH(5-HO-2-oxo-oxolan-4-yl) = O=C1CC(N*)C(O)O1; X1 = O=C(CN1CCN([*:1])CC1)[*:2]

Biological target: T1, human granzyme B (Homo sapiens, UniProt P10144)
T1 construct: from tissue; host or cells: human lymphocytes
T1 sequence (P10144 21-247): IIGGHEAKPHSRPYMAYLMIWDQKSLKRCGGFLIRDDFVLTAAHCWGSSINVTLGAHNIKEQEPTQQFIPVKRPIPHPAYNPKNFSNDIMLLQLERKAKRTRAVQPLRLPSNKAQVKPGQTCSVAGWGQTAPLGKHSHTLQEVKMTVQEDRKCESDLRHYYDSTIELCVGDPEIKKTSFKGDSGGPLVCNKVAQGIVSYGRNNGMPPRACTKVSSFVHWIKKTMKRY
Assay: Competitive binding assay of human granzyme B with Compound ^18F-21-Al radioligand
Settings: competition with 20 nM Compound ^18F-21-Al, human lymphocyte GZB, 37° C., 90 minutes
Method: Purpose: To perform competitive binding assays with human granzyme B using Compound ^18F-21-Al to determine IC50 values of potential granzyme B ligands
Initial Plate Preparation (including total binding and non-specific binding): • 1. 78 μL of reaction buffer, as described above, is added to each well in a 96 well plate • 2. For wells used to examine total binding (defined as the binding of the radioligand in the absence of competitors), 2 μL of DMSO is added to give 1% final DMSO concentration for all wells • 3. For wells used to examine non-specific binding (defined as the binding of the radioligand in the presence of 10 μM 21), 2 μL of 1 mM Compound 21 is added to give a final concentration of 10 μM
• 1. Granzyme B (GZB, human lymphocyte) is diluted to 0.5 μg/mL using reaction buffer as described above • 2. 100 μL of 0.5 μg/mL diluted human GzB is added to each well, giving 50 ng per well and a final concentration of 0.25 μg/mL
• 1. DMSO or water is added to the respective compound vial to make 1 mM compound stock solution • 2. 1 mM compound stock solution is serially diluted by ½ log (3.16 fold) by adding 18.5 μL of compound stock to 40 μL of DMSO, mixing by pipetting up and down, and transferring 18.5 μL of the mixture to 40 μL of DMSO. This process is repeated to create 10 dilution points for test compounds. • 3. For wells used to examine ligand binding competition, 2 μL of each dilution is dispensed into the 96 well plates prepared as described above, giving a further dilution of 1/100.
• 1. 200 nM of Compound ^18F-21-Al (10× radioligand stock) is prepared in reaction buffer, aiming for approximately 2 million CPM per 20 μL of solution (input). • 2. 20 μL of radioligand stock is dispensed into each well to give a final concentration per well of 20 nM.
• 1. All 96 wells should have a final volume of 200 μL, and the assay plates are incubated at 37° C. for 90 minutes. • 2. All samples from the assay plates are transferred to MultiScreenHTS FB plates that have been presoaked in PBS buffer, pH 7.4, and filtered using a vacuum manifold. An additional 150 μL of PBS buffer is added to each well in the assay plates and combined to ensure transfer of any remaining samples • 3. MultiScreenHTS FB plates are washed 3× with 150 μL of PBS buffer. • 4. All filters are separated and transferred to individual tubes using Multiscreen punch tips and the Millipore multiple punch apparatus • 5. The sample set is analyzed using the Wizard 2480 automatic gamma-counter [Perkin Elmer] through a [^18F]-specific profile. Values are reported as decay-corrected counts per minute (CPM). • 6. Resulting CPM values are normalized and converted to % inhibition by the following equation:
[formula] • *the total bound fraction is typically less than 10% of the added radioligand under such assay conditions. • Resulting % inhibition values were plotted using the software GraphPad Prism 8.4.3 using the One site—Fit log IC50 equation to determine the IC50 value for each ligand.
[formula] • Y=% Inhibition • X=Log concentration of the cold competing ligand (M) • A=minimum Y (0%) • B=maximum Y (100%) • Log IC50=Log concentration of cold competing ligand (M) at half-way between minimum and maximum Y

Compound	IC50
CC[C@H](C)[C@H](NC(=O)CCNC(=O)[C@@H](CCC(=O)O)NC(=O)CCNC(=O)CN1CCC(CN2CCN3CCN(CC2)CC(=O)[O][Al]([F])[O]C(=O)C3)CC1)C(=O)N[C@H]1CCc2cccc3c2N(C1=O)[C@H](C(=O)NC1CC(=O)OC1O)C3 (stereo partly drawn) [Compound 7-Al, 2,2′-(7-((1-((8R,15S,16S)-8-(2-carboxyethyl)-15-(((3S,6S)-6-((2-hydroxy-5-oxotetrahydrofuran-3-yl)carbamoyl)-4-oxo-1,2,3,4,6,7-hexahydroazepino[3,2,1-hi]indol-3-yl)carbamoyl)-16-methyl-2,6,9,13-tetraoxo-3,7,10,14-tetraazaoctadecyl)piperidin-4-yl)methyl)-1,4,7-triazonane-1,4-diyl)diacetic acid, aluminum fluoride complex (1:1)]	6.7 nM
CC[C@H](C)[C@H](NC(=O)CCNC(=O)CCNC(=O)[C@@H](CCC(=O)O)NC(=O)[C@@H](CCC(=O)O)NC(=O)CN1CCN(C(=O)CN2CCN3CCN(CC2)CC(=O)[O][Al]([F])[O]C(=O)C3)CC1)C(=O)N[C@H]1CCc2cccc3c2N(C1=O)[C@H](C(=O)NC1CC(=O)OC1O)C3 (stereo partly drawn) [Compound 16-Al, 2,2′-(7-(2-(4-((4R,7R,18S,19S)-4,7-bis(2-carboxyethyl)-18-(((3S,6S)-6-((2-hydroxy-5-oxotetrahydrofuran-3-yl)carbamoyl)-4-oxo-1,2,3,4,6,7-hexahydroazepino[3,2,1-hi]indol-3-yl)carbamoyl)-19-methyl-2,5,8,12,16-pentaoxo-3,6,9,13,17-pentaazahenicosyl)piperazin-1-yl)-2-oxoethyl)-1,4,7-triazonane-1,4-diyl)diacetic acid, aluminum fluoride complex (1:1)]	4.2 nM
CC[C@H](C)[C@H](NC(=O)CNC(=O)CNC(=O)[C@H](CCC(=O)O)NC(=O)CN1CCN(C(=O)CN2CCN3CCN(CC2)CC(=O)[O][Al]([F])[O]C(=O)C3)CC1)C(=O)N[C@H]1CCc2cccc3c2N(C1=O)[C@H](C(=O)NC1CC(=O)OC1O)C3 (stereo partly drawn) [Compound 8-Al, 2,2′-(7-(2-(4-((4S,13S,14S)-4-(2-carboxyethyl)-13-(((3S,6S)-6-((2-hydroxy-5-oxotetrahydrofuran-3-yl)carbamoyl)-4-oxo-1,2,3,4,6,7-hexahydroazepino[3,2,1-hi]indol-3-yl)carbamoyl)-14-methyl-2,5,8,11-tetraoxo-3,6,9,12-tetraazahexadecyl)piperazin-1-yl)-2-oxoethyl)-1,4,7-triazonane-1,4-diyl)diacetic acid, aluminum fluoride complex (1:1)] ({NOTA(AlF)}-[X1]EGGI[Haic]-{NH(5-HO-2-oxo-oxolan-4-yl)})	6.5 nM
CC[C@H](C)[C@H](NC(=O)CCNC(=O)CCNC(=O)[C@@H](CCC(=O)O)NC(=O)CN1CCC(CN2CCN3CCN(CC2)CC(=O)[O][Al]([F])[O]C(=O)C3)CC1)C(=O)N[C@H]1CCc2cccc3c2N(C1=O)[C@H](C(=O)NC1CC(=O)OC1O)C3 (stereo partly drawn) [Compound 1-Al, 2,2′-(7-((1-((4R,15S,16S)-4-(2-carboxyethyl)-15-(((3S,6S)-6-((2-hydroxy-5-oxotetrahydrofuran-3-yl)carbamoyl)-4-oxo-1,2,3,4,6,7-hexahydroazepino[3,2,1-hi]indol-3-yl)carbamoyl)-16-methyl-2,5,9,13-tetraoxo-3,6,10,14-tetraazaoctadecyl)piperidin-4-yl)methyl)-1,4,7-triazonane-1,4-diyl)diacetic acid, aluminum fluoride complex (1:1)]	5.7 nM
CC[C@H](C)[C@H](NC(=O)COCCNC(=O)[C@@H](CCC(=O)O)NC(=O)[C@@H](CCC(=O)O)NC(=O)CN1CCC(CN2CCN3CCN(CC2)CC(=O)[O][Al]([F])[O]C(=O)C3)CC1)C(=O)N[C@H]1CCc2cccc3c2N(C1=O)[C@H](C(=O)NC1CC(=O)OC1O)C3 (stereo partly drawn) [Compound 4-Al, 2,2′-(7-((1-((4R,7R,16S,17S)-4,7-bis(2-carboxyethyl)-16-(((3S,6S)-6-((2-hydroxy-5-oxotetrahydrofuran-3-yl)carbamoyl)-4-oxo-1,2,3,4,6,7-hexahydroazepino[3,2,1-hi]indol-3-yl)carbamoyl)-17-methyl-2,5,8,14-tetraoxo-12-oxa-3,6,9,15-tetraazanonadecyl)piperidin-4-yl)methyl)-1,4,7-triazonane-1,4-diyl)diacetic acid, aluminum fluoride complex (1:1)]	2.8 nM
CC[C@H](C)[C@H](NC(=O)COCCOCCNC(=O)COCCOCCNC(=O)[C@@H](CCC(=O)O)NC(=O)CN1CCN(C(=O)CN2CCN3CCN(CC2)CC(=O)[O][Al]([F])[O]C(=O)C3)CC1)C(=O)N[C@H]1CCc2cccc3c2N(C1=O)[C@H](C(=O)NC1CC(=O)OC1O)C3 (stereo partly drawn) [Compound 11-Al, 2,2′-(7-(2-(4-((4R,25S,26S)-4-(2-carboxyethyl)-25-(((3S,6S)-6-((2-hydroxy-5-oxotetrahydrofuran-3-yl)carbamoyl)-4-oxo-1,2,3,4,6,7-hexahydroazepino[3,2,1-hi]indol-3-yl)carbamoyl)-26-methyl-2,5,14,23-tetraoxo-9,12,18,21-tetraoxa-3,6,15,24-tetraazaoctacosyl)piperazin-1-yl)-2-oxoethyl)-1,4,7-triazonane-1,4-diyl)diacetic acid, aluminum fluoride complex (1:1)]	2.4 nM
CC[C@H](C)[C@H](NC(=O)CCNC(=O)CN(CC(=O)O)C(=O)CCNC(=O)CN1CCC(CN2CCN3CCN(CC2)CC(=O)[O][Al]([F])[O]C(=O)C3)CC1)C(=O)N[C@H]1CCc2cccc3c2N(C1=O)[C@H](C(=O)NC1CC(=O)OC1O)C3 (stereo partly drawn) [Compound 3-Al, 2,2′-(7-((1-((15S,16S)-7-(carboxymethyl)-15-(((3S,6S)-6-((2-hydroxy-5-oxotetrahydrofuran-3-yl)carbamoyl)-4-oxo-1,2,3,4,6,7-hexahydroazepino[3,2,1-hi]indol-3-yl)carbamoyl)-16-methyl-2,6,9,13-tetraoxo-3,7,10,14-tetraazaoctadecyl)piperidin-4-yl)methyl)-1,4,7-triazonane-1,4-diyl)diacetic acid, aluminum fluoride complex (1:1)]	4.7 nM
CC[C@H](C)[C@H](NC(=O)COCCNC(=O)[C@@H](CCC(=O)O)NC(=O)CN1CCN(C(=O)CN2CCN3CCN(CC2)CC(=O)[O][Al]([F])[O]C(=O)C3)CC1)C(=O)N[C@H]1CCc2cccc3c2N(C1=O)[C@H](C(=O)NC1CC(=O)OC1O)C3 (stereo partly drawn) [Compound 9-Al, 2,2′-(7-(2-(4-((4R,13S,14S)-4-(2-carboxyethyl)-13-(((3S,6S)-6-((2-hydroxy-5-oxotetrahydrofuran-3-yl)carbamoyl)-4-oxo-1,2,3,4,6,7-hexahydroazepino[3,2,1-hi]indol-3-yl)carbamoyl)-14-methyl-2,5,11-trioxo-9-oxa-3,6,12-triazahexadecyl)piperazin-1-yl)-2-oxoethyl)-1,4,7-triazonane-1,4-diyl)diacetic acid, aluminum fluoride complex (1:1)]	3.5 ± 0.78 nM
